Laboratory results published in patent publication US10941158B2, “Pyrazole ACC inhibitors and uses thereof” (Gilead Apollo, LLC, priority 2015, dated 2021).
Values after ≈ are worked out from the molar mass of the structure shown. Where two headings read alike, the source gives them in different places.

How the values were obtained:
Septoria tritici (St) = test: Growth inhibition assay of fungal pathogens; format: cell-based; conditions: for IC90: Zymoseptoria tritici, read-out: Concentration at 90% Inhibition St
Procedure: (§1) Compounds of the present invention were evaluated in a growth inhibition assay to determine the ability to control the growth of fungal pathogens, such as Botrtyis cinerea (Bc), Collectotrichum graminicola (Cg). Diplodia maydis (Dm), Fusarium moniliforme (Fm), Fusarium virguliforme (Fv), Phytophthora capsici (Pc), Rhizoctonia solani (Rs), and Septoria tritici (St). Compounds to be tested were dissolved in DMSO at 2.5 mg/ml to produce compound stock solutions (“stocks”). Stocks were diluted with DMSO by a five-fold dilution in a 96-well stock plate, and two sets of final concentrations of 50, 10, and 2 ppm or 2, 0.4, and 0.08 ppm were obtained in vitro. A set of positive controls was also prepared, with various concentrations of Soraphen (2, 0.4, and 0.08 ppm), Metalaxyl (1.1, 0.22, and 0.04 ppm), and Metconazole (2, 0.4, and 0.08 ppm or 0.2, 0.04, and 0.008 ppm) after the five-fold dilutions. Negative controls on each plate included 2% DMSO, water, and a blank (media+2% DMSO). Fungal spores were isolated from previously sub-cultured plates of Botrtyis cinerea (Bc). Collectotrichum graminicola (Cg). Diplodia maydis (Dm), Fusarium moniliforme (Fm), Fusarium virguliforme (Fv), Phytophthora capsici (Pc), and Septoria tritici (St). The isolated spores were diluted to individual concentrations with a 17% V8 liquid media. For Rhizoctonia solani (Rs) and Pythium irregulare, 1.5 mm mycelial plugs were used in place of spores and ¼ Potato Dextrose Broth (PDB) was used for dilution. The spore concentrations and plug sizes were based on growth curves generated at 48 hours for each pathogen. In a second 96-well plate, the spores or mycelial plugs, media, diluted compound solutions, and controls were combined. Once the compound was added, a true final concentration of compound in each well was measured by an OD600 reading, which adjusted for any compound precipitation that might have occurred in the well. Plate readings were repeated at both 24 and 48 hours. The blank negative control was used as a background subtraction. Additional visual ratings were performed at both 24 and 48 hours for checking on precipitation and confirming efficacy. Visual and OD600 ratings of the compounds at 48 hours were compared to the 2% DMSO negative control, and the percent of pathogen growth inhibition was determined based on those values.

[1] = tested on: Fusarium virguliforme (Fv); test: Growth inhibition assay of fungal pathogens; format: cell-based; conditions: 48 h
Procedure: as §1

Diplodia maydis (Dm) = test: Growth inhibition assay of fungal pathogens; format: cell-based; conditions: Stenocarpella maydis, 48 h, read-out: Concentration at 90% Inhibition Dm
Procedure: as §1

Botrtyis cinerea (Bc) = test: Growth inhibition assay of fungal pathogens; format: cell-based; conditions: 48 h, read-out: Concentration at 90% Inhibition Bc
Procedure: as §1

Rhizoctonia solani (Rs) = test: Growth inhibition assay of fungal pathogens; format: cell-based; conditions: 48 h, read-out: Concentration at 90% Inhibition Rs
Procedure: as §1

[2] = tested on: Phytophthora capsici (Pc); test: Growth inhibition assay of fungal pathogens; format: cell-based; conditions: for IC90: Phytophthora capsici, read-out: Concentration at 90% Inhibition Pc
Procedure: as §1

[3] = tested on: Collectotrichum graminicola (Cg); test: Growth inhibition assay of fungal pathogens; format: cell-based; conditions: 48 h, read-out: Concentration at 90% Inhibition Cg
Procedure: as §1

[4] = tested on: Fusarium moniliforme (Fm); test: Growth inhibition assay of fungal pathogens; format: cell-based; conditions: for IC90: Fusarium verticillioides, 48 h, read-out: Concentration at 90% Inhibition Fm
Procedure: as §1

C. krusei ATCC 6258 = test: Anti-Fungal (Candida) Activity Assay, broth microtiter MIC; format: cell-based; conditions: Pichia kudriavzevii, read-out: MIC C. krusei ATCC 6258
Procedure: (§2) Compounds of the present invention were evaluated in an Anti-Fungal Activity Assay. An exemplary procedure for the assay, which measures the susceptibility of various Candida species to anti-fungal compounds, follows. Compounds to be tested (including fluconazole and amphotericin B) were dissolved in DMSO to obtain a solution having a concentration of 1 mg/mL. […] All species were grown from frozen stock by directly plating on to freshly prepared Sabouraud Dextrose agar (BD, Difco) and incubated overnight in ambient air at 35° C. for 24 h. A direct suspension was prepared in RPMI 1640+MOPS (Lonza, Biowhittaker) by taking individual colonies from the overnight cultures using sterile swabs soaked in sterile saline. The concentration of the suspension was determined using pre-determined standard curves. […] Broth microtiter MIC challenge plates were prepared following CLSI guidelines (M27-A3, Vol. 28 No. 14). The original CLSI guidelines focused on reading Candida MICs after 48 h of incubation. As reading after only 24 h offers a clear advantage of patient care, QC limits are being established for all drugs at 24 h. That being said there are no known interpretive breakpoints for amphotericin B at 24 h and the current fluconazole interpretive breakpoints are based on a 48 h reading. The MIC for the test compounds were recorded at 48 h. All MIC determinations were achieved by visually comparing the growth found in the antibiotic challenged wells to that of the growth control.

[5] = tested on: C. parapsilosis ATCC 22019; test: as above; format: cell-based; conditions: Lodderomyces parapsilosis, read-out: MIC C. parapsilosis ATCC 22019
Procedure: as §2

C. albicans ATCC 90028 = test: as above; format: cell-based; conditions: read-out: MIC C. albicans ATCC 90028
Procedure: as §2

human (hACC2) ACC2 = human (hACC2) ACC2 (Homo sapiens, UniProt O00763); test: In vitro Acetyl-CoA Carboxylase (ACC) inhibition assay (ADP-Glo), hACC2; format: biochemical
Procedure: The detailed procedure is as follows. […] 10 μL ADP glo reagent was added. […] 20 μL kinase detection reagent was added.
“NA” stands for “not assayed.”

[6] = Table 4a, 48 hours, read-out: Concentration at 90% Inhibition Fv
[7] = Table 4b, 48 hours, read-out: Concentration at 90% Inhibition Fv
[8] = ATCC6258, 3 replicates, MIC recorded at 48 h
[9] = ATCC22019, 3 replicates, MIC recorded at 48 h
[10] = ATCC90028, 3 replicates, MIC recorded at 48 h

Chain of human (hACC2) ACC2 (O00763 whole entry): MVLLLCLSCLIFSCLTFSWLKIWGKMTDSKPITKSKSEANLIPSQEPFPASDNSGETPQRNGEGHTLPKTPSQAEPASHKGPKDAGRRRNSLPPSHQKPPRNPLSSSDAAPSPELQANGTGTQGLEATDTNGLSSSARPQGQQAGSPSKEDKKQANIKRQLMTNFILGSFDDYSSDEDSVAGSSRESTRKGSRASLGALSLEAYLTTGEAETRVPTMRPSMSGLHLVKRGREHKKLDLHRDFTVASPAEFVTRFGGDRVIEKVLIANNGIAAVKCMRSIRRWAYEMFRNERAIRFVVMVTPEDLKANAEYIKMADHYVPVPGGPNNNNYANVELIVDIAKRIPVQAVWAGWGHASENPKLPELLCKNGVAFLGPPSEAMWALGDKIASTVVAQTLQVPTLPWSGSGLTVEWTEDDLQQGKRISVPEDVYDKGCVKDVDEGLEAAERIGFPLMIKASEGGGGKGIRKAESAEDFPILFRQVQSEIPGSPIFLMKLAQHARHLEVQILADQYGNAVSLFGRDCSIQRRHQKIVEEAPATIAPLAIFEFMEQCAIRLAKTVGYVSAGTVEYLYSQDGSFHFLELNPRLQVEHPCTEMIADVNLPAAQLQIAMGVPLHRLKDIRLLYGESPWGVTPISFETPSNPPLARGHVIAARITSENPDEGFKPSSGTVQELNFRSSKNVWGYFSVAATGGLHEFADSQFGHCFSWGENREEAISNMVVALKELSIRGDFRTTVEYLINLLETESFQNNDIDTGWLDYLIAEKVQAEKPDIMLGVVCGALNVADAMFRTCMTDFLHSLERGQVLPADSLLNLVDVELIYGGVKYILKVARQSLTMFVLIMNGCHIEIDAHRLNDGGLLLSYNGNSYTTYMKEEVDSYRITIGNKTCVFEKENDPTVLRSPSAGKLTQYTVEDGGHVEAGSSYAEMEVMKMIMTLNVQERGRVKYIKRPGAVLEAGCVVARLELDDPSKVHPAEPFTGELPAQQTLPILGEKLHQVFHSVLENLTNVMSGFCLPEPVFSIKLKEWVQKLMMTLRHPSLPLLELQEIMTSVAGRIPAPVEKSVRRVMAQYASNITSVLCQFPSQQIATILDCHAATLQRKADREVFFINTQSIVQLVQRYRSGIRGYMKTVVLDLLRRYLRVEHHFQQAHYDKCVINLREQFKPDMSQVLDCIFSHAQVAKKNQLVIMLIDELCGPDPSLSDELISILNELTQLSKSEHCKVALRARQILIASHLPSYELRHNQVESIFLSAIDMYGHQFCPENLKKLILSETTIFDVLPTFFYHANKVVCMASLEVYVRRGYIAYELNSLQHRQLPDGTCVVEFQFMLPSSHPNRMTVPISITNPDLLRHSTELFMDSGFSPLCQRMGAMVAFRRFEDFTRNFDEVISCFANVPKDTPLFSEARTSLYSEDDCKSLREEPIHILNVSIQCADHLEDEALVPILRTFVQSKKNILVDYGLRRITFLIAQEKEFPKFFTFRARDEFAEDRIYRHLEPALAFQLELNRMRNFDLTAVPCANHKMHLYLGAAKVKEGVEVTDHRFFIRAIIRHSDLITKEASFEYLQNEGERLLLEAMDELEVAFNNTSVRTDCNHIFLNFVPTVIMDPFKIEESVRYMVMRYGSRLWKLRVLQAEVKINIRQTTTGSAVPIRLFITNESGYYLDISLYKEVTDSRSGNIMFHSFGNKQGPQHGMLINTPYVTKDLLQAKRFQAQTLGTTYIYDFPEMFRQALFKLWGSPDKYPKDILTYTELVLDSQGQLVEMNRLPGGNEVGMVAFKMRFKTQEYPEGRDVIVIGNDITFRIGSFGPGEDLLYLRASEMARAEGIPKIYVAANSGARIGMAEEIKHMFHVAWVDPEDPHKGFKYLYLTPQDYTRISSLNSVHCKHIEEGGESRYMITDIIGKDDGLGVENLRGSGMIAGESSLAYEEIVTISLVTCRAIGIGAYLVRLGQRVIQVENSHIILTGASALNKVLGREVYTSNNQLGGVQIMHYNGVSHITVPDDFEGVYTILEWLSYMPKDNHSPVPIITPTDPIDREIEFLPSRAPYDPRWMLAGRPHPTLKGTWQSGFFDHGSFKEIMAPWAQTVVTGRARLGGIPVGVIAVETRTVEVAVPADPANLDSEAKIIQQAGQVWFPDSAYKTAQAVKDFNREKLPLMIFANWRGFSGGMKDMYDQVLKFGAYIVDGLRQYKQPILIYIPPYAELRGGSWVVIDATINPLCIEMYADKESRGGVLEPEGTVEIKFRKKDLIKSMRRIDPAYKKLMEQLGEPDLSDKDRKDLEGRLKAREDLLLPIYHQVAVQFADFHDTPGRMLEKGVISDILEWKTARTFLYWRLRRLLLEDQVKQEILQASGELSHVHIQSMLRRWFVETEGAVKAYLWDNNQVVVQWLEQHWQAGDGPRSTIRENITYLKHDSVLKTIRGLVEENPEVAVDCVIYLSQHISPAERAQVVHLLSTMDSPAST

| MIC (C. krusei ATCC 6258; [8]) [µg/mL] | MIC [5, 9] [µg/mL] | MIC (C. albicans ATCC 90028; [10]) [µg/mL] | IC50 (human (hACC2) ACC2) [nM] | SMILES | Concentration at 90% Inhibition St (Septoria tritici (St); Table 4b, 48 hours) | IC90 (Septoria tritici (St); Table 4a, 48 hours) [µg/mL] | IC90 [1, 6] [µg/mL] | IC90 [1, 7] [µg/mL] | IC90 (Diplodia maydis (Dm); Table 4a) [µg/mL] | IC90 (Diplodia maydis (Dm); Table 4b) [µg/mL] | IC90 (Botrtyis cinerea (Bc); Table 4a) [µg/mL] | IC90 (Botrtyis cinerea (Bc); Table 4b) [µg/mL] | IC90 (Rhizoctonia solani (Rs); Table 4a) [µg/mL] | IC90 (Rhizoctonia solani (Rs); Table 4b) [µg/mL] | IC90 ([2]; Table 4a, 48 hours) [µg/mL] | Concentration at 90% Inhibition Pc ([2]; Table 4b, 48 hours) | IC90 ([3]; Table 4a) [µg/mL] | IC90 ([3]; Table 4b) [µg/mL] | IC90 ([4]; Table 4a, 48 hours) [µg/mL] | IC90 ([4]; Table 4b, 48 hours) [µg/mL] | other results |
| --- | --- | --- | --- | --- | --- | --- | --- | --- | --- | --- | --- | --- | --- | --- | --- | --- | --- | --- | --- | --- | --- |
| 1.1 to 2 (≈ 1.71 to 3.12 µM) | 0.25 to 1 (≈ 0.39 to 1.56 µM) | 0.25 to 1 (≈ 0.39 to 1.56 µM) | 3 to 10 | COc1ccc(F)cc1[C@H](Cn1c(=O)n(C(C)(C)C(=O)NC(C)C)c(=O)c2c(C)c(-n3cccn3)sc21)O[C@H]1CC[C@@H](O)CC1 [Compound I-14, 2-(1-((R)-2-(5-fluoro-2-methoxyphenyl)-2-(((1s,4S)-4-hydroxycyclohexyl)oxy)ethyl)-5-methyl-2,4-dioxo-6-(1H-pyrazol-1-yl)-1,4-dihydro-thieno[2,3-d]pyrimidin-3(2H)-yl)-N-isopropyl-2-methylpropanamide] | D (“D” provided a compound concentration of >50 ppm at 90% inhibition of fungal pathogens) | > 50 | 2 (≈ 3.12 µM) | 2 (≈ 3.12 µM) | 2 (≈ 3.12 µM) | 2 (≈ 3.12 µM) | 0.4 (≈ 0.623 µM) | 0.4 (≈ 0.623 µM) | 2 (≈ 3.12 µM) | 2 (≈ 3.12 µM) | > 50 | D (“D” provided a compound concentration of >50 ppm at 90% inhibition of fungal pathogens) | > 50 | > 50 | 0.08 (≈ 0.125 µM) | 0.08 (≈ 0.125 µM) | – |
| 1.1 to 2 (≈ 1.68 to 3.06 µM) | 0.25 to 1 (≈ 0.382 to 1.53 µM) | 0.25 to 1 (≈ 0.382 to 1.53 µM) | 3 to 10 | COc1ccc(F)cc1[C@H](Cn1c(=O)n(C(C)(C)C(=O)N2CCCC2)c(=O)c2c(C)c(-n3cccn3)sc21)O[C@H]1CC[C@@H](O)CC1 [Compound I-15, 1-((R)-2-(5-fluoro-2-methoxyphenyl)-2-(((1s,4S)-4-hydroxycyclohexyl)oxy)ethyl)-5-methyl-3-(2-methyl-1-oxo-1-(pyrrolidin-1-yl)pro-pan-2-yl)-6-(1H-pyrazol-1-yl)thieno[2,3-d]pyrimidine-2,4(1H,3H)-dione] | D (“D” provided a compound concentration of >50 ppm at 90% inhibition of fungal pathogens) | > 50 | 2 (≈ 3.06 µM) | 2 (≈ 3.06 µM) | > 50 | 10 (≈ 15.3 µM) | 2 (≈ 3.06 µM) | 2 (≈ 3.06 µM) | > 50 | 10 (≈ 15.3 µM) | > 50 | D (“D” provided a compound concentration of >50 ppm at 90% inhibition of fungal pathogens) | > 50 | 10 (≈ 15.3 µM) | 0.4 (≈ 0.612 µM) | 0.4 (≈ 0.612 µM) | – |

| SMILES | MIC (C. krusei ATCC 6258; [8]) [µg/mL] | MIC [5, 9] [µg/mL] | MIC (C. albicans ATCC 90028; [10]) [µg/mL] | IC50 (human (hACC2) ACC2) [nM] | Concentration at 90% Inhibition St (Septoria tritici (St); Table 4b, 48 hours) | IC90 (Septoria tritici (St); Table 4a, 48 hours) [µg/mL] | IC90 [1, 6] [µg/mL] | IC90 [1, 7] [µg/mL] | IC90 (Diplodia maydis (Dm); Table 4a) [µg/mL] | IC90 (Diplodia maydis (Dm); Table 4b) [µg/mL] | IC90 (Botrtyis cinerea (Bc); Table 4a) [µg/mL] | IC90 (Botrtyis cinerea (Bc); Table 4b) [µg/mL] | IC90 (Rhizoctonia solani (Rs); Table 4a) [µg/mL] | IC90 (Rhizoctonia solani (Rs); Table 4b) [µg/mL] | IC90 ([2]; Table 4a, 48 hours) [µg/mL] | Concentration at 90% Inhibition Pc ([2]; Table 4b, 48 hours) | IC90 ([3]; Table 4a) [µg/mL] | IC90 ([3]; Table 4b) [µg/mL] | IC90 ([4]; Table 4a, 48 hours) [µg/mL] | IC90 ([4]; Table 4b, 48 hours) [µg/mL] | other results |
| --- | --- | --- | --- | --- | --- | --- | --- | --- | --- | --- | --- | --- | --- | --- | --- | --- | --- | --- | --- | --- | --- |
| COc1ccccc1[C@H](Cn1c(=O)n(C(C)(C)C(=O)NC(C)C)c(=O)c2c(C)c(-n3cccn3)sc21)OC(C)C [Compound I-17, (R)-2-(l-(2-isopropoxy-2-(2-methoxyphenyl)ethyl)-5-methyl-2,4-dioxo-6-(H-pyrazol-1-yl)-1,4-dihydrothieno[2,3-d]pyrimidin-3(2H)-yl)-N-isopropyl-2-methylpropanamide] | – | – | – | 3 to 10 | – | – | – | – | 2 (≈ 3.52 µM) | 2 (≈ 3.52 µM) | 2 (≈ 3.52 µM) | 2 (≈ 3.52 µM) | > 50 | > 50 | – | – | > 50 | 10 (≈ 17.6 µM) | – | – | IC90 (Septoria tritici (St); 48 h, Table 4a): > 50 µg/mL; IC90 (Septoria tritici (St); 48 h, Table 4b): > 50 µg/mL; IC90 ([1]; read-out: Concentration at 90% Inhibition Fv, Table 4a, 48 hours): 0.4 µg/mL (≈ 0.705 µM); IC90 ([1]; read-out: Concentration at 90% Inhibition Fv, Table 4b, 48 hours): 0.4 µg/mL (≈ 0.705 µM); IC90 ([2]; 48 h, Table 4a): > 50 µg/mL; IC90 ([2]; 48 h, Table 4b): > 50 µg/mL; IC90 [4]: 0.4 µg/mL (≈ 0.705 µM); Concentration at 90% Inhibition Fm ([4]; Table 4b, 48 hours): A (“A” provided a compound concentration of 0.4 ppm at 90% inhibition of fungal pathogens); MIC (C. krusei ATCC 6258; ATCC6258, 48 h): 0.25 to 1 µg/mL (≈ 0.44 to 1.76 µM); MIC ([5]; ATCC22019, 48 h): 0.25 to 1 µg/mL (≈ 0.44 to 1.76 µM); MIC (C. albicans ATCC 90028; ATCC90028, 48 h): 0.25 to 1 µg/mL (≈ 0.44 to 1.76 µM) |
